Patent US20260272965A1, “SELEN[…] OF GLY[…] ANTI-INFLAMMATORY AND ANTIVIRAL PHARMACEUTICALS” (priority 2023, published 2026)
“Also recorded” adds a separate entry of the source.

What was measured:
[1] = system: HSV-2 GFP+ (bHSV2-BAC38-S1); experiment: HSV-2 GFP+ infection of MRC5 cells, live-cell fluorescence imaging; format: cell-based; details: for inhibition of fluorescent HSV-2 GFP+ infected cells: 24 hours post infection, 125 μM (FIG. 5A)
Protocol: FIG. 5A. Fluorescent images of MRC5 cells infected with HSV-2 GFP+(bHSV2-BAC38-S1). Images taken at 0 and 24 hours post infection using an Incucyte S3 Live-Cell Analysis System. Acyclovir at a matched concentration (125 μM) was used as a positive control. FIG. 5B. Live cell imaging analysis of triplicate wells infected with HSV-2 GFP+. Wells were treated with either Vehicle (0.1% DMSO), Acyclovir 125 μM, or JR002 125 μM. Images were collected at 2 hour intervals for 48 hours post infection. Relative fluorescent intensity (RFI) calculated as the percent increase in fluorescence intensity relative to time 0 post infection. Bars represent the standard error of the mean.
JR002 is the selenoglycoside homolog of TE3048, the thioglycoside for which data for inhibition of HSV-1 was shown above. In FIG. 5A., the lower right quadrant represents high level cell damage, fluorescent HSV-2 GFP+ infected cells 24 hours post infection (24HPI), vehicle only.

[2] = system: SARS-CoV-2 (USA_WA1/2020); details: highest non-toxic dose; Vero E6, 72 hr
Description: In this assay, viral infection and replication leads to a loss of host cell viability, which is indirectly measured by an endpoint assessment of host cell viability after 72 hr. The CPE reduction assay indirectly monitors the ability of compounds to inhibit viral replication and infection through various molecular mechanisms, including direct inhibition of viral entry or enzymatic processes as well as acting on host pathways that modulate viral replication. Compounds with antiviral activity protect the host cells from the CPE of the virus, increasing viability.
Protocol: Vero E6 cells were premixed with SARS-CoV-2 for 5-10 min, dispensed into assay ready plates (pre-dispensed with compounds and controls). Cells and virus were incubated with compounds for 72 hr, then viability was assayed by Vero E6 host cell ATP content. 60 nL/well of compounds in DMSO was spotted into 384-well assay plates (Greiner, black clear bottom, tissue culture treated plates, #781091) by acoustic dispensing. In addition, 60 nL of the positive control Calpain inhibitor IV (stock concentration 2 mg/mL). 5 μL/well of media was dispensed into assay plates (MEM, 1% Pen/Strep/GlutaMax, 1% HEPES, 2% HI FBS). […] Luminescence signal was read on Perkin Elmer Envision or BMG CLARIOstar plate reader.

[3] = system: HSV-1; format: cell-based, Herpes simplex 1; details: Vero cells, 4 hour treatment, low multiplicity HSV-1
[4] = system: SARS-CoV-2 spike protein; details: previously demonstrated; blocks N-glycan processing at the oligomannose stage; cited from earlier work

Structure (SMILES): Nc1nc2c(ncn2COCCO)c(=O)[nH]1 [Acyclovir, reference compound]
- inhibition of fluorescent HSV-2 GFP+ infected cells [1]: almost complete inhibition

Structure (SMILES): CC(=O)NC1C(OC(C)=O)[C@H](OC(C)=O)C(COC(C)=O)O[C@H]1[Se]C/C=C(\C)CCC=C(C)C (stereo partly drawn) [JR002, Geranyl 2-acetamido-2-deoxy-3,4,6-tri-O-acetyl-1-seleno-3-D-glucopyranoside]
- inhibition of HSV-2 replication / infectivity ([1]; 125 μM, imaging for 48 hours post infection): potent inhibition of infectivity; also recorded: significantly inhibits
- inhibition of fluorescent HSV-2 GFP+ infected cells [1]: almost complete inhibition

Structure (SMILES): CC(=O)N[C@@H]1[C@@H](OC(C)=O)[C@H](OC(C)=O)[C@@H](COC(C)=O)O[C@H]1SC/C=C(\C)CCC=C(C)C [TE3048, N,O-tetra-acetyl-GlcNAc-ß-S-geranyl]
- inhibition of SARS-CoV-2 [2]: 60-70%

Structure (SMILES): CC(=O)N[C@@H]1[C@@H](O)[C@H](O)[C@@H](CO)O[C@H]1SC/C=C(\C)CCC=C(C)C [TE3054, GlcNAc-ß-S-geranyl]
- inhibition of HSV-1 infectivity / plaque formation [3]: inhibitory

Structure (SMILES): O=C1N[C@@H]2[C@@H](O)[C@@H](O)[C@H](O)[C@@H](CO)N2C1=O [kifunensine]
- inhibition of N-glycan maturation and infectivity [4]: Inhibition of N-glycan maturation and infectivity
